# Legend:
# Format in all cases: cell-based
# [1] = system: leaves of corn plants; test: Co-delivery of 2,4-D with tdTomato construct pGEP359 by microprojectile bombardment, transient transformation; conditions: 250 ng 2,4-D, 20 hours after bombardment, vs without 2,4-D
# Experimental: Corn plants have grown in greenhouse. In stage V8 microprojectile bombardment was conducted using a Bio-Rad PDS-1000/He particle gun. The bombardment conditions are: 27-28 mm/Hg vacuum, 450 or 650 psi rupture disc, 6 mm gap distance. 20 hours after bombardment, transient transformation was examined using a fluorescence microscope for the tdTomato gene expression at excitation maximum 554 nm and emission maximum 581 nm. Plasmid DNA and 2,4-D co-coating onto gold particles for bombardment were conducted as described in Example 1. 2,4-D stock solution (e.g. 25 mg/ml in DMSO).
# [2] = system: corn Hi II type II callus; test: Co-delivery of 2,4-D with mNeonGreen construct pGEP362 by microprojectile bombardment, transient transformation; conditions: 125 ng, 250 ng, 500 ng 2,4-D vs 0 ng; 16 hours after bombardment
# Experimental: Type II callus culture and microprojectile bombardment and post-bombardment handlings were performed using the same procedure as described in Example 2.
# (§1) The amounts of 2,4-D used for a bombardment with 100 μg of gold particles (approximately, 4.0-5.0×10^7 0.6 μm gold particles) are in range of 1.0 ng to 1000 ng, preferred 10 ng to 500 ng. Plasmid DNA and 2,4-D co-coating onto gold particles for bombardment were conducted as described in Example 6.
# [3] = system: corn Hi II immature embryos; test: as above; conditions: 250 ng 2,4-D, 100 μg gold particles, 16 hours after bombardment, vs no 2,4-D
# Experimental: Embryo isolation and microprojectile bombardment and post-bombardment handlings were performed using the same procedure as described in Example 1.
# as §1, with “1. 2,4-D stock solution (e.g. 1 mg/ml) is prepared in 100% DMSO.” for “6.”
# [4] = system: corn Hi II type II calluses; test: Co-delivery of 6-BA or zeatin with tdTomato construct pGEP359 by microprojectile bombardment, transient transformation; conditions: 250 ng hormone, 100 μg gold particles, 16 hours after bombardment, vs no hormone
# Experimental: The amounts of 6-BA or zeatin used for a bombardment with 100 μg of gold particles (approximately, 4.0-5.0×10^7 0.6 μm gold particles) are in range of 1.0 ng to 10000 ng, preferred 10 ng to 1000 ng.
# [5] = system: corn Hi II immature embryos; test: Co-delivery of TSA with gene editing construct pGEP284, site-specific InDel rate by NGS
# Experimental: Embryo isolation, microprojectile bombardment and post-bombardment handlings were performed using the same procedure as described in Example 1. Two days after bombardment, the embryos were harvested and used for genomic DNA isolation use Plant DNA Isolation kit from Qiagen (Venlo, Netherlands). NGS (next generation sequencing) was conducted by Miseq platform of Illumina Inc. (San Diego, Calif., USA). InDel (insertion and deletion) rate was analyzed by means of CRISPResso (http://crispresso.rocks/).
# [6] = system: corn Hi II immature embryos; test: Co-delivery of TSA with tdTomato construct pLH-Pat5077399-70Subi-tDt by microprojectile bombardment, transient transformation
# Experimental: Procedure: Prepare corn immature embryo for bombardment: 8-10 days post pollination, maize ears (i.e. A188 or Hi II) with immature embryos size 0.8 to 1.8 mm were harvested. The ears were sterilized with 70% ethanol for 10-15 minutes. After a brief air-dry in a laminar hood, remove top ˜⅓ of the kernels from the ears with a shark scalpel, and pull the immature embryos out of the kernels carefully with a spatula. The fresh isolated embryos were placed onto the bombardment target area in an osmotic medium plate (see below) with scutellum-side up. Wrap the plates with parafilm and incubated them at 25° C. in dark for 4-20 hours before bombardment.
# The amounts of TSA used for a bombardment with 100 μg of gold particles (approximately, 4.0-5.0×10^7 0.6 micron gold particles) are in range of 0.01 ng to 500 ng, preferred 0.1 to 50 ng. Plasmid DNA and TSA co-coating onto gold particles for bombardment: For 10 shots, 1 mg of gold particle size 0.6 micron (μm) in 50% (v/v) glycerol (100 μg gold particles per shot) in a total volume of 100 microliter (μl) was pipetted into a clear low-retention microcentrifuge tube. Sonicate for 15 seconds to suspend the gold particles. While vortex at a low speed, add the following in order to each 100 μl of gold particles: • Up to 10 μl of DNA (1.0 μg total DNA, 100 ng per shot) • 100 μl of 2.5 M CaCl2) (pre-cold on ice) • 40 μl of 0.1 M cold spermidine
# Close the lid and vortex the tube for 2-30 minutes at 0-10° C., and spin down the DNA-coated gold particles. After washing in 500 μl of 100% ethanol for two times, the pellet was resuspended in 120 μl of 100% ethanol. […]
# Bombardment was conducted using a Bio-Rad PDS-1000/He particle gun. […] 16-48 hours after bombardment, transient transformation was examined using a fluorescence microscope for the tdTomato gene expression at excitation maximum 554 nm and emission maximum 581 nm. […]
# [7] = system: sugar beet friable calluses; test: Co-delivery of TSA with pLH-Pat5077399-70Subi-tDt by microprojectile bombardment, transient transformation; conditions: 15 ng TSA, 300 μg gold particles, 24 hours after bombardment, vs no TSA
# Experimental: Sugar beet callus induction: young leaves from in vitro cultured sugar beet shoots in shoot culture medium (see below) were cut into small pieces (square, size 3-5 mm) in a laminar hood, and placed them onto callus induction medium (see below), in a density of 10-15 pieces per plate (diameter of 100 mm) with adaxial-side up. Wrap the plates with parafilm, and culture the leaf segments in plate at 23° C. in the dark for 6-8 weeks until callus emerged.
# Preparation of sugar beet callus for bombardment: harvest friable fresh calluses under a stereoscope, and transfer them onto the bombardment target area in a sugar beet osmatic medium (see below) (single layer, no overlapping). Wrap the plates with parafilm and incubated at 25° C. in dark for 4-20 hours before bombardment.
# Microprojectile bombardment and post-bombardment handlings were conducted using the same procedure descripted in Example 1, except for the amount of gold particles used for a bombardment was 300 μg.
# Sugar beet shoot culture medium: MS, 0.25 mg/L of BAP, 30 g/L of sucrose, 8 g/I plant agar, pH 6.0
# Sugar beet callus induction medium: MS, 2.0 mg/L of BAP, 15 g/L of sucrose, 8 g/I plant agar, pH 6.0
# Sugar beet callus osmatic medium: MS, 2.0 mg/L of BAP, 15 g/L of sucrose, 0.2 M Mannitol (36.4 g/L), 0.2 M sorbitol (36.4 g/L), 8 g/I plant agar, pH 6.0
# [8] = system: corn Hi II type II calluses; test: Co-delivery of TSA with gene editing constructs pGEP359 and pGEP353, site-specific InDel rate by NGS; conditions: 15 ng TSA vs no TSA, 13 days after co-bombardment
# Experimental: Type II callus culture and microprojectile bombardment and post-bombardment handlings were performed using the same procedure as described in Example 2. 2-15 days after bombardment, the calluses were harvested and used for genomic DNA isolation with a Plant DNA Isolation kit from Qiagen. NGS (next generation sequencing) was conducted by Illumina Miseq platform. InDel (insertion and deletion) rate was analyzed by means of CRISPResso.
# [9] = system: corn Hi II type II calluses; test: Co-delivery of TSA with tdTomato construct pGEP359 by microprojectile bombardment, transient transformation; conditions: 15 ng TSA, 100 μg gold particles, 16 hours after bombardment, vs no TSA
# Experimental: Type II callus induction and selection: Hi II immature embryos size 0.8-1.8 mm were isolated as described in Example 1, and were placed onto type II callus induction medium (see below) immediately with scutellum-side up, in a density of 10-15 embryo per plate (diameter of 100 mm). Wrap the plates with parafilm, and culture the embryos in plate at 27° C. in the dark until type II callus emerged (˜2 weeks). Pick friable type II calluses under a stereoscope, and move them onto type II callus selection medium (see below). Repeat this process for 2-3 more times, and trash the embryos 4 weeks after induction. Select pre-embryo stage of type II callus under a stereoscope carefully based on: friability (highly friable), morphology (no embryo-like structure), color (fresh, white, semi-transparent). Select and subculture type II callus every 1-2 week in callus selection medium (see below) until the callus lines stabilized (about 3-5 rounds of selection). Stable type II callus lines were cultured in type II callus subculture medium (see below) every 1 to 2 weeks.
# Preparation of type II callus for bombardment: Select and transfer highly friable type II callus at pre-embryo stage onto the bombardment target region in an osmotic medium plate (see Example 1) (single layer, no overlapping). […]
compound,measurement,setting,value
"O=C(O)COc1ccc(Cl)cc1Cl [2,4-D, 2,4-Dichlorophenoxyacetic acid]",effect on transient transformation in corn leaves,[1],improved the transient transformation
same,increase of average number of green fluorescent cells per field,[2],at least 34.8%
same,increase in average number of green fluorescent cells per embryo,[3],187%
"c1ccc(CNc2ncnc3nc[nH]c23)cc1 [6-BA, 6-Benzylaminopurine]",increase in average number of red fluorescent cells per field,[4],35.8%
"CC(/C=C/C(=O)NO)=C\[C@@H](C)C(=O)c1ccc(N(C)C)cc1 [TSA, trichostatin A]",effect of lower and higher TSA amounts on InDel rates,"[5]; 15 ng and 45 ng TSA compared to absence of TSA, 2 days",significant increase of InDel rates
same,TSA amount giving optimum of rates of InDel events,"[5]; no TSA, 15, 30, 45 ng TSA tested, 2 days after bombardment, pGEP284",around 30 ng
same,increase of average number of red fluorescent cells (positively transient transformed cells) per embryo,"[6]; 15 ng TSA, 100 μg gold particles 0.6 μm, 16 hours after bombardment, vs no TSA",98.2%
same,effect of lower and higher TSA amounts on transient transformed cells,"[6]; 15 ng and 45 ng TSA vs no TSA, 16 hours",significant increase of transient transformed cells
same,TSA amount giving optimum of average number of fluorescent cells per field,"[6]; no TSA, 15, 30, 45 ng TSA tested, 16 hours",around 30 ng
same,increase of average number of fluorescent cells per field,[7],193.7%
same,"increase of site-specific InDel rate, factor",[8],6.75
same,"increase of site-specific InDel rate, percent",[8],575%
same,increase of average number of fluorescent cells per field,[9],43.3%
"C/C(=C\CNc1ncnc2[nH]cnc12)CO [zeatin, Zeatin]",increase in average number of red fluorescent cells per field,[4],31.2%

# Source: patent US20210254087A1, “METHODS FOR ENHANCING GENOME ENGINEERING EFFICIENCY” (KWS SAAT SE & CO. KGaA, priority 2018, published 2021)
